Results from US20240181022A1, “AMURINS LYSINS, AND LYSIN-ANTIMICROBIAL PEPTIDE (AMP) CONSTRUCTS ACTIVE AGAINST GRAM-NEGATIVE BACTERIA” (priority 2021, published 2024).
Converted amounts (≈) assume the structure as drawn. “And” between values parts separate entries of the source, which are not always exact repeats. Identical values can stand only once. Like-named read-outs stand apart in the source and are kept apart here. Where a SMILES comes first, the peptide text is derived from it. Where no end group is shown, it is not given here. [ ]: non-standard residue; d: D form.

Columns and labels:
M. tuberculosis = type: cell-based, Mycobacterium tuberculosis
M. intracellulare = test: MIC against M. intracellulare; type: cell-based, Mycobacterium intracellulare; conditions: M. intracellulare (ATCC 13950); CAAT media
M. kansasii = test: MIC against M. kansasii; type: cell-based, Mycobacterium kansasii; conditions: M. kansasi (ATCC 12478); CAAT media
Mycobacterium species = type: cell-based
M. abscessus = test: MIC against MDR M. abscessus isolates; type: cell-based, Mycobacterium abscessus; conditions: 7 days; for MIC: AST media (CAAT); for activity (MIC) against M. abscessus: 5 clinical MDR strains and 1 ATCC strain, CAAT
M. fortuitum = test: MIC against M. fortuitum; type: cell-based, Mycobacterium fortuitum; conditions: M. fortuitum (ATCC 6841); CAAT media
M. scrofulaceum = test: MIC against M. scrofulaceum; type: cell-based, Mycobacterium scrofulaceum; conditions: M. scrofulaceum (ATCC 19981); CAAT media
M. avium = test: MIC against M. avium; type: cell-based, Mycobacterium avium; conditions: M. avium (ATCC 700898); CAAT media
M. smegmatis = test: MIC against M. smegmatis; type: cell-based, Mycobacterium smegmatis; conditions: M. smegmatis (MC 155); CAAT media
A. baumannii = test: Checkerboard synergy assay (FICI) against A. baumannii; type: cell-based, Acinetobacter baumannii; conditions: A. baumannii ATCC BAA-747
Procedure: (§1) Any known method to assess MIC may be used.
(§2) Checkerboards are constructed by first preparing columns of e.g., a 96-well polypropylene microtiter plate, wherein each well has the same amount of antibiotic diluted 2-fold along the horizontal axis. […] Bacteria are added to the drug combinations at concentrations of 1×10^5 […] in CAA, for example, with or without human serum or pulmonary surfactant. […] Summation fractional inhibitory concentrations (ΣFICs) are calculated for each drug and the minimum ΣFIC value (ΣFICmin) is used to determine the effect of the Chp peptide/antibiotic combination.
(§3) GN370 was further tested in combination with up to seven additional antibiotics (in addition to meropenem) against a variety of bacterial strains, including P. aeruginosa, A. baumannii, E. coli, E. cloacae, and K. pneumoniae. GN370 and the subject antibiotics were tested in a checkerboard assay format, and FICI values were determined, wherein ≤0.5 indicates synergy, >0.5-≤1 indicates additive; and >1 indicates indifferent.

P. aeruginosa [1] = test: Checkerboard synergy assay (FICI) with antibiotics against P. aeruginosa; type: cell-based, Pseudomonas aeruginosa; conditions: for FICI of the antibiotic with GN370: P. aeruginosa ATCC 27853, checkerboard; for Antibiotic MIC (single agent): P. aeruginosa strain AR-769; for Antibiotic FIC / Antibiotic MIC (combo): P. aeruginosa strain AR-769, in combination with GN370; for Antibiotic MIC (combo): in µg/mL
Procedure: as §1, §2
The synergy of GN370 with meropenem was evaluated against 3 different strains of P. aeruginosa and three different strains of B. cenocepacia.
as §3

K. pneumoniae = test: Checkerboard synergy assay (FICI) against K. pneumoniae; type: cell-based, Klebsiella pneumoniae; conditions: K. pneumoniae HM-44
Procedure: as §1, §2, §3

E. cloacae = test: Checkerboard synergy assay (FICI) against E. cloacae; type: cell-based, Enterobacter cloacae; conditions: E. cloacae ATCC 13047
Procedure: as §1, §2, §3

P. aeruginosa [2] = conditions: […], before serial passage
E. coli = test: Checkerboard synergy assay (FICI) against E. coli; type: cell-based, Escherichia coli; conditions: E. coli ATCC 25922
Description: In some embodiments, the Chp peptides disclosed herein or active fragments thereof reduce the minimum inhibitory concentration (MIC) of an antibiotic in the presence and/or absence of human serum, pulmonary surfactant, and/or sputum, including human sputum and human sputum from a cystic fibrosis patient. Any known method to assess MIC may be used. In some embodiments, a checkerboard assay is used to determine the effect of a Chp peptide or active fragment thereof on antibiotic concentration. The checkerboard assay is based on a modification of the CLSI method for MIC determination by broth microdilution (See Clinical and Laboratory Standards Institute (CLSI), CLSI. 2015. Methods for Dilution Antimicrobial Susceptibility Tests for Bacteria That Grow Aerobically; Approved Standard-10th Edition. Clinical and Laboratory Standards Institute, Wayne, PA, which is herein incorporated by reference in its entirety and Ceri et al. 1999. J. Clin. Microbiol. 37: 1771-1776, which is also herein incorporated by reference in its entirety).
Checkerboards are constructed by first preparing columns of e.g., a 96-well polypropylene microtiter plate, wherein each well has the same amount of antibiotic diluted 2-fold along the horizontal axis. […] The Chp peptide or active fragment thereof and antibiotic dilutions are then combined, so that each column has a constant amount of antibiotic and doubling dilutions of Chp peptide, while each row has a constant amount of Chp peptide and doubling dilutions of antibiotic. Each well thus has a unique combination of Chp peptide and antibiotic. Bacteria are added to the drug combinations at concentrations of 1×10^5 GFU/ml in CAA, for example, with or without human serum or pulmonary surfactant. […] Summation fractional inhibitory concentrations (ΣFICs) are calculated for each drug and the minimum ΣFIC value (ΣFICmin) is used to determine the effect of the Chp peptide/antibiotic combination.
as §3

[3] = M. tuberculosis (ATCC 35817), (ADC, T) media
[4] = M. tuberculosis strain TN8109_LB (MDR), 7H9 broth, 20 days
[5] = M. tuberculosis strain TN8562_M33 (susc), 7H9 broth, 20 days
[6] = M. tuberculosis strain TN10525_LL (MDR), 7H9 broth, 20 days
[7] = M. tuberculosis strain TN10571_KY (MDR), 7H9 broth, 20 days
[8] = M. tuberculosis strain TN12657_KQ15 (IS), 7H9 broth, 20 days
[9] = M. tuberculosis strain TN13923_HD17 (susc), 7H9 broth, 20 days
[10] = M. tuberculosis strain TN18349_W738 (susc), 7H9 broth, 20 days
[11] = M. tuberculosis strain TN34503_001 (susc), 7H9 broth, 20 days
[12] = M. abscessus strain BK51403 (ATCC 19977)
[13] = 30 amurin peptides, seven species, CAAT media

Compound | MIC (M. tuberculosis; [3]) | MIC (M. tuberculosis; [4]) | MIC (M. tuberculosis; [5]) | MIC (M. tuberculosis; [6]) | MIC (M. tuberculosis; [7]) | MIC (M. tuberculosis; [8]) | MIC (M. tuberculosis; [9]) | MIC (M. tuberculosis; [10]) | MIC (M. tuberculosis; [11]) | MIC (M. intracellulare) | MIC (M. kansasii) | MIC (M. abscessus; M. abscessus strain BK51402) | MIC (M. abscessus; [12]) | MIC (M. abscessus; M. abscessus strain BK51408) | MIC (M. abscessus; M. abscessus strain BK55096) | MIC (M. abscessus; M. abscessus strain BK55691) | MIC (M. avium) | FICI of the antibiotic with GN370 (A. baumannii) | FICI of the antibiotic with GN370 (K. pneumoniae) | FICI of the antibiotic with GN370 (E. cloacae) | other results
CC[C@H](C)[C@H](NC(=O)CNC(=O)CNC(=O)[C@H](CCCNC(=N)N)NC(=O)[C@H](CCSC)NC(=O)[C@@H](NC(=O)[C@H](CCCNC(=N)N)NC(=O)[C@H](CCCNC(=N)N)NC(=O)[C@H](CC(C)C)NC(=O)[C@H](CCCNC(=N)N)NC(=O)[C@H](CC(N)=O)NC(=O)[C@H](CCCNC(=N)N)NC(=O)[C@@H]1CCCN1C(=O)[C@H](Cc1c[nH]cn1)NC(=O)[C@H](CCSC)NC(=O)[C@H](CCCNC(=N)N)NC(=O)[C@H](CC(C)C)NC(=O)[C@H](C)NC(=O)[C@@H](NC(=O)[C@H](CCCNC(=N)N)NC(=O)[C@H](CO)NC(=O)[C@H](Cc1ccccc1)NC(=O)[C@H](CC(C)C)NC(=O)[C@H](CCCNC(=N)N)NC(=O)[C@H](CCCNC(=N)N)NC(=O)[C@H](CO)NC(=O)[C@H](CCCNC(=N)N)NC(=O)[C@H](CCCNC(=N)N)NC(=O)[C@H](CCCNC(=N)N)NC(=O)[C@@H]1CCCN1C(=O)[C@H](CC(C)C)NC(=O)[C@H](CCCNC(=N)N)NC(=O)[C@H](Cc1ccc(O)cc1)NC(=O)[C@H](CCCNC(=N)N)NC(=O)[C@H](CCCNC(=N)N)NC(=O)[C@H](CCCNC(=N)N)NC(=O)[C@H](C)NC(=O)[C@@H](N)CCSC)[C@@H](C)O)[C@@H](C)CC)C(=O)N[C@@H](CCCNC(=N)N)C(=O)N[C@@H](Cc1ccccc1)C(=O)O [AM18] (H-MARRRYRLPRRRSRRLFSRTALRMHPRNRLRRIMRGGIRF-OH) | 4 µg/mL (≈ 0.772 µM) | 1 µg/mL (≈ 0.193 µM) | 2 µg/mL (≈ 0.386 µM) | 1 µg/mL (≈ 0.193 µM) | 2 µg/mL (≈ 0.386 µM) | 1 µg/mL (≈ 0.193 µM) | 1 µg/mL (≈ 0.193 µM) | 2 µg/mL (≈ 0.386 µM) | 0.5 µg/mL (≈ 0.0965 µM) | 1 µg/mL (≈ 0.193 µM) | 4 µg/mL (≈ 0.772 µM) | 2 µg/mL (≈ 0.386 µM) | 1 µg/mL (≈ 0.193 µM) | 4 µg/mL (≈ 0.772 µM) | 4 µg/mL (≈ 0.772 µM) | 2 µg/mL (≈ 0.386 µM) | 2 Tg/mL | – | – | – | activity (MIC) against Mycobacterium species (Mycobacterium species): highest activity; MIC (M. abscessus; M. abscessus strain BK58156): 16 µg/mL (≈ 3.09 µM); MIC (M. fortuitum): 2 µg/mL (≈ 0.386 µM); MIC (M. scrofulaceum): 4 µg/mL (≈ 0.772 µM); MIC (M. smegmatis): 0.25 µg/mL (≈ 0.0483 µM)
C[C@H]1[C@H](NC(=O)/C(=N\OC(C)(C)C(=O)O)c2csc(N)n2)C(=O)N1S(=O)(=O)O [Aztreonam] | – | – | – | – | – | – | – | – | – | – | – | – | – | – | – | – | – | 0.313 | 0.375 | 0.25 | FICI of the antibiotic with GN370 (P. aeruginosa [1]): 0.375
Cc1nnc(SCC2=C(C(=O)O)N3C(=O)[C@@H](NC(=O)Cn4cnnn4)[C@H]3SC2)s1 [Cefazolin] | – | – | – | – | – | – | – | – | – | – | – | – | – | – | – | – | – | 0.5 | 0.375 | – | –
NC[C@H]1O[C@H](O[C@H]2[C@H](O)[C@@H](O[C@H]3O[C@H](CO)[C@@H](O)[C@H](N)[C@H]3O)[C@H](N)C[C@@H]2N)[C@H](N)C[C@@H]1O [tobramycin, reference compound] | – | – | – | – | – | – | – | – | – | – | – | – | – | – | – | – | 0.125 Tg/mL | 0.5 | 0.375 | 0.5 | MIC (P. aeruginosa [2]): 0.002 µg/mL (≈ 0.00428 µM); FICI of the antibiotic with GN370 (P. aeruginosa [1]): 0.5; Antibiotic MIC (single agent) (P. aeruginosa [1]): 0.125 µg/mL; Antibiotic FIC (P. aeruginosa [1]): 0.125; Antibiotic MIC (combo) (P. aeruginosa [1]): 0.016 and 0.015; FICI of the antibiotic with GN370 (E. coli): 0.25
AM9: Modified variant of Unp2, SEQ ID NO: 97 (M[dR][dR][dR][dR]LS[dR][dR]TS[dR][dR]FF[dR][dK]GL[dK]V[dR][dR][dR]NL[dR]A[dR]PM[dR]GGF[dR]I) | 4 µg/mL | 16 µg/mL | 16 µg/mL | 64 µg/mL | 8 µg/mL | 16 µg/mL | 16 µg/mL | 8 µg/mL | 16 µg/mL | 2 µg/mL | 2 µg/mL | 1 µg/mL | 4 µg/mL | 4 µg/mL | 2 µg/mL | 2 µg/mL | 1 Tg/mL | – | – | – | activity (MIC) against Mycobacterium species (Mycobacterium species; [13]): highest activity; activity (MIC) against M. abscessus (M. abscessus): good activity; MIC (M. abscessus; M. abscessus strain BK58156): 2 µg/mL; MIC (M. fortuitum): 4 µg/mL; MIC (M. scrofulaceum): 4 µg/mL; MIC (M. smegmatis): 1 µg/mL
AM16: Modified variant of Chp4, SEQ ID NO: 91 (MA[dR][dR]Y[dR]LS[dR][dR][dR]S[dR][dR]LFS[dR]TAL[dR]MH[dR][dR]N[dR]L[dR][dR]IM[dR]GGI[dR]F) | 8 µg/mL | 8 µg/mL | 8 µg/mL | 16 µg/mL | 8 µg/mL | 8 µg/mL | 8 µg/mL | 4 µg/mL | 16 µg/mL | 1 µg/mL | 1 µg/mL | 1 µg/mL | 2 µg/mL | 4 µg/mL | 1 µg/mL | 1 µg/mL | 1 Tg/mL | – | – | – | activity (MIC) against Mycobacterium species (Mycobacterium species; [13]): highest activity; activity (MIC) against M. abscessus (M. abscessus): good activity; MIC (M. abscessus; M. abscessus strain BK58156): 2 µg/mL; MIC (M. fortuitum): 2 µg/mL; MIC (M. scrofulaceum): 1 µg/mL; MIC (M. smegmatis): 0.25 µg/mL
Colistin | – | – | – | – | – | – | – | – | – | – | – | – | – | – | – | – | – | 0.375 | 0.187 | 0.25 | FICI of the antibiotic with GN370 (P. aeruginosa [1]): 0.499; Antibiotic MIC (single agent) (P. aeruginosa [1]): 0.063 µg/mL; Antibiotic FIC (P. aeruginosa [1]): 0.125; Antibiotic MIC (combo) (P. aeruginosa [1]): 0.008; FICI of the antibiotic with GN370 (E. coli): 0.375
Gentamicin | – | – | – | – | – | – | – | – | – | – | – | – | – | – | – | – | – | 0.563 | 0.375 | 0.25 | FICI of the antibiotic with GN370 (E. coli): 0.312
